The species entered for series [1] is Homo sapiens. As to the kind of experiment: Selectivity ratio of IC50 for human cathepsin L to IC50 for human cathepsin K.
For series [2], the species on record is Homo sapiens. As to the kind of experiment: Selectivity ratio of IC50 for human cathepsin F to IC50 for human cathepsin K.
Series [3] in a line: Ratio of product of IC50 for rabbit bone resorption and IC50 for humanized rabbit cathepsin K to IC50 for rabbit cathepsin K.
Series [4] is filed under the species Homo sapiens. As to the kind of experiment: Selectivity ratio of IC50 for human cathepsin S to IC50 for human cathepsin K.
For another series, the target named is Cathepsin K (Homo sapiens, UniProt P43235). As to the kind of experiment: Inhibition of humanized rabbit cathepsin K.
The species entered for series [5] is Homo sapiens. As to the kind of experiment: Selectivity ratio of IC50 for human cathepsin B to IC50 for human cathepsin K.
Series [6] is described as follows: Oral bioavailability in rat at 2 mg/kg, iv. The format is ADME, organism-based. As to conditions: in vivo.
The nature of series [7]: Lipophilicity, log D of the compound. As to conditions: octanol/water. The format is physicochemical.
A short description of series [8]: Aqueous equilibrium solubility of the compound in water. The format is physicochemical.
A short description of series [9]: Half life in rat at 10 mg/kg, po or 2 mg/kg, iv. The format is ADME, organism-based. As to conditions: in vivo.
Series [10] can be described thus: Dissociation constant, pKa of the compound. The format is physicochemical.
Series [11] can be described thus: Oral bioavailability in dog at 1 mg/kg, iv. Conditions: in vivo. The format is ADME, organism-based, Canis lupus familiaris.
The nature of series [12]: Half life in dog at 5 mg/kg, po or 1 mg/kg, iv. The format is ADME, organism-based, Canis lupus familiaris. As to conditions: in vivo.

SMILES strings stand for the structures. A value given as a limit tells only on which side of the number the result lay.

Turning to `CC(C)C[C@H](N[C@@H](c1ccc(-c2ccc(S(C)(=O)=O)cc2)cc1)C(F)F)C(=O)NCC#N`, the Ratio IC50 was 869 in the series listed under Homo sapiens [1], 822 in the series listed under Homo sapiens [2], 2000 in the series listed under Homo sapiens [4] and more than 32600 in the series filed under Homo sapiens [5]. In addition, the figures for the IC50 (in [3]; against Cathepsin K) were 15 nM and 0.3 nM, respectively.

For the compound `CC(C)C[C@H](N[C@@H](c1ccc(-c2ccc(C(O)C(F)(F)F)cc2)cc1)C(F)(F)F)C(=O)NC1(C#N)CC1` (stereo not given in full), the results for the Ratio IC50 in the series listed under Homo sapiens [1], in the series listed under Homo sapiens [4] and in the series listed under Homo sapiens [5] were 506, 311 and 5980, respectively. Also, the figures for the IC50 (in series [3]; at Cathepsin K) were 21 nM and 1.6 nM, respectively.

On to `CC(C)(F)C[C@H](N[C@@H](c1ccc(-c2ccc(C3(C(N)=O)CC3)cc2F)cc1)C(F)F)C(=O)NC1(C#N)CC1`, for which the Ratio IC50 in the series filed under Homo sapiens [1] was determined as 12700; in the series filed under Homo sapiens [2], 2340; in the series listed under Homo sapiens [4], 2880; in the series filed under Homo sapiens [5], 7230. In addition, the concentration for half-maximal inhibition (IC50) was 4 nM in series [3] and 0.3 nM on Cathepsin K.

`CC(C)C[C@H](N[C@@H](c1ccc(-c2ccc(S(C)(=O)=O)cc2)cc1)C(F)(F)F)C(=O)NC1(C#N)CC1` registered a bioavailability in series [6] of 4%. The same compound displayed a log distribution coefficient (logD) in series [7] of 3.53. Besides, the Ratio IC50 in the series filed under Homo sapiens [1] was 1390; in the series listed under Homo sapiens [2], 370; in the series filed under Homo sapiens [4], 809; in the series filed under Homo sapiens [5] it was 23600. Further, the solubility (thermodynamic) in series [8] was less than 10 µg/mL. The IC50 in series [3] turned out to be 3 nM; against Cathepsin K, 0.3 nM. This compound gave a half-life in series [9] of 2.6 h. This compound had a pKa in series [10] of less than 2.

Take `CC(C)(F)C[C@H](N[C@@H](c1ccc(-c2ccc(C3(C(N)=O)CC3)cc2F)cc1)C(F)(F)F)C(=O)NC1(C#N)CC1`: the Ratio IC50 is 9370 in the series filed under Homo sapiens [1], 1380 in the series listed under Homo sapiens [2], 1200 in the series filed under Homo sapiens [4] and 4400 in the series listed under Homo sapiens [5]. The figures for the 50% inhibitory concentration (IC50) (in [3]; at Cathepsin K) were 2 nM and 0.3 nM, respectively.

`CC(C)C[C@H](N[C@@H](c1ccc(-c2ccc(S(C)(=O)=O)cc2)cc1)C(F)F)C(=O)NC1(C#N)CC1` displayed a bioavailability in series [6] of 100%. Moreover, in series [7], the logD was 0.11. The Ratio IC50 was 894 in the series listed under Homo sapiens [1], 645 in the series filed under Homo sapiens [2], 1140 in the series filed under Homo sapiens [4] and more than 11900 in the series listed under Homo sapiens [5]. The compound further gave a solubility (thermodynamic) in series [8] of less than 10 µg/mL. In addition, the values for the IC50 (in [3]; at Cathepsin K) were 10 nM and 0.8 nM, respectively. In series [9], the half-life is 0.8 h. This compound came in with a pKa in series [10] of 2.7.

In the case of `CC(C)C[C@H](N[C@@H](c1ccc(-c2ccc(S(C)(=O)=O)cc2)cc1)C(F)(F)F)C(=O)NCC#N`, the Ratio IC50 in the series listed under Homo sapiens [1] was 1320; in the series filed under Homo sapiens [2], 480; in the series listed under Homo sapiens [4], 890; in the series filed under Homo sapiens [5], 26200. Further, the IC50 in series [3] was 3 nM; on Cathepsin K, 0.2 nM.

`CC(C)(F)C[C@H](N[C@@H](c1ccc(-c2ccc(S(C)(=O)=O)cc2)cc1)C(F)(F)F)C(=O)NC1(C#N)CC1` [ODANACATIB]: the bioavailability came to 8% in series [6] and 6% in series [11]. Besides, the Ratio IC50 in the series listed under Homo sapiens [1] turned out to be 15000; in the series listed under Homo sapiens [2], 3980; in the series filed under Homo sapiens [4] it was 300; in the series listed under Homo sapiens [5], 5170. For the same compound, the figures for the IC50 (in series [3]; at Cathepsin K) were 5 nM and 0.2 nM, respectively.

Take `CC(C)C[C@H](N[C@@H](c1ccc(-c2ccc(C(O)C(F)(F)F)cc2)cc1)C(F)F)C(=O)NC1(C#N)CC1` (stereo not given in full): the Ratio IC50 was 785 in the series listed under Homo sapiens [1], 126 in the series listed under Homo sapiens [2], 813 in the series filed under Homo sapiens [4] and more than 5180 in the series listed under Homo sapiens [5]. The half-maximal inhibitory concentration (IC50) in [3] is 32 nM; at Cathepsin K it was 1.9 nM.

Turning to `CC(C)(F)C[C@H](N[C@@H](c1ccc(-c2ccc(S(C)(=O)=O)cc2)cc1)C(F)F)C(=O)NC1(C#N)CC1`, the half-life in [12] is 35 h; in [9], 3.8 h. The bioavailability in series [6] came to 22%; in [11], 23%. In addition, the Ratio IC50 came to 6330 in the series listed under Homo sapiens [1], 1920 in the series listed under Homo sapiens [2], 210 in the series listed under Homo sapiens [4] and 2300 in the series listed under Homo sapiens [5]. The half-inhibitory concentration (IC50) in [3] was found to be 9 nM; against Cathepsin K, 1 nM.

As a reminder, the IC50 is the point on the concentration scale where inhibition reaches its midpoint. Usually bioavailability stands for dose-corrected exposure relative to a reference, in per cent. Low readings indicate little systemic uptake, high ones much systemic uptake. For orientation: logD means the decadic logarithm of the distribution of all forms, ionised or not, between an organic phase and buffer at a given pH. Read a low logD as a more hydrophilic compound. Broadly, the solubility (thermodynamic) is the concentration in solution at equilibrium with solid. In general, half-life refers to how long it takes for the measured level to halve. Read a low half-life as fast loss. As a reminder, the pKa is the pH at which an ionisable group is half protonated.

The record behind these values is ChEMBL document CHEMBL1667813, “Difluoroethylamines as an amide isostere in inhibitors of cathepsin K” (Bioorg Med Chem Lett, 2011).
